In US20110135738A1, “SINGLE DOSAGE PHARMACEUTICAL FORMULATION COMPRISING EPROSARTAN MESYLATE” (LEK Pharmaceutical S. D. D., priority 2008, published 2011):

Columns and labels:
[1] = oral; cited from earlier work
[2] = X-ray diffraction analysis of eprosartan mesylate form / physical stability; assay type: physicochemical; details: ambient temperature and humidity
Experimental: During the dry granulation processes using different excipients from the list above, physical stability of the eprosartan mesylate anhydrate was investigated. […] The final tablet form and placebo powder were analyzed by X-ray diffraction (XRD) pattern to confirm presence of anhydrous form of eprosartan mesylate.
Diffractograms were collected on X′Pert PRO MPD diffractometer using CuKα radiation.
Data were recorded from 2 do 40° 2θ; in steps of 0.033° 2θ; with the integration times 50 s (routine testing) and from 4 do 20° 2θ; in steps of 0.033° 2θ; with the integration times 2000 s (to achieve lower LOD). The range for measurements with longer integration times was chosen according to the known diffractograms of eprosartan mesylate crystalline forms, which all have characteristic peaks in the carefully measured range between 4 and 20° 2theta.

[3] = at RH over 60%; cited from earlier work
[4] = Flowability of powder / final mixture; assay type: physicochemical; details: drug per se
[5] = cited from earlier work

In the case of `CCCCc1ncc(/C=C(\Cc2cccs2)C(=O)O)n1Cc1ccc(C(=O)O)cc1.CS(=O)(=O)O` [Eprosartan mesylate, (E)-α-[2-n-butyl-1-[(4-carboxyphenyl)methyl]-1H-imidazol-5-yl]methylene-2-thiophenepropionic acid monomethanesulfonate], the bioavailability [1] is listed as 13%, the “physical and chemical stability of anhydrous form” value [2] is listed as “physically and chemically stable” and the “interconversion of anhydrous form” value [3] is listed as “interconverts to eprosartan mesylate mono- and later to dihydrate”. The “flowability of eprosartan mesylate” value [4] was “below 0.15 g/sec” and the “permeability across the intestinal epithelium” value [5] was “low permeability”.
